# Measured values taken from patent publication US9044526B2, “Medical product containing active component of propolis or grapefruit seed extract and manufacturing method thereof” (Korea Institute of Ceramic Engineering and Technology, priority 2011, dated 2015).
# Experiments:
# [1] = Drug release of impregnated multifilament in 0.01M PBS; format: physicochemical; settings: release from multifilament impregnated with 1000 ppm solution; 0.01M PBS pH 7.4, 37, examined 0-100 hours
# Experimental: In order to examine the […] drug release of each of the multifilament samples impregnated with CAPE and GSE for 440 min and pinocembrin for 720 min in Example 3, the following test was performed. As a solvent for use in this release test, 0.01M PBS (by phosphate buffer calculator, monobasic monohydrate: 1.1832 g, and dibasic ACS reagent: 8.1572 g) was prepared and adjusted to a pH of 7.4. After standard curves of FIGS. 5A, 5B and 5C for the grapefruit seed extracts and CAPE and pinocembrin (the active components of propolis) were plotted, and then tests for the materials were performed at the respective concentrations. The standard curves for the functional materials were obtained by measuring the absorbance using JASCO V-550 UV-Vis Spectrometer (Wavelength Range: 200-900 nm; Bandwidth Selectable: 0.5 nm; Scanning Speed: 400 nm/min; Data Pitch: 1 nm). The standard curve equations shown in FIGS. 5A (CAPE), 5B (Pinocembrin) and 5C (grapefruit seed extract) are as follows: y=0.126x+0.022 CAPE (1) y=0.051x+0.021 Pinocembrin (2) y=0.002x−0.035 Grapefruit seed extract (3) wherein x is the concentration of each functional material, and y is the absorbance of each functional material. […]
# [2] = system: Escherichia coli DH 5α (ATCC 25922); assay: Antibacterial activity of impregnated multifilament, agar diffusion; format: cell-based; settings: contained in multifilament, treatment concentration 1000 ppm, 37.1° C., 24 hours, FIG. 8
# Experimental: (§1) The antibacterial activity of the multifilament of Example containing the grapefruit seed extract and the active components (CAPE and pinocembrin) of propolis was tested. In the test, the cells of bacterial strains were grown in LB medium (peptone 10 g) by agar diffusion, and the growth of the bacterial strains was examined by UV-Vis spectroscopy. As the test strains, Staphylococcus aureus (ATCC 6538) and Escherichia coli DH 5α (ATCC 25922) were used. The bacterial cells were cultured at 37.1° C. for 24 hours, and then changes in the bacterial strains were measured. FIG. 8 is a set of photographs showing a comparison of antibacterial activity between a multifilament containing the grapefruit seed extract and a multifilament containing the active component (CAPE) of propolis. […] In FIG. 8, 1: a control group, 2 to 6: samples impregnated with a solution of CAPE and the grapefruit seed extract; a: a sample treated with Staphylococcus aureus; b: a sample treated with Escherichia coli DH 5α. In the photograph of FIG. 8, the treatment concentration is 1000 ppm. […] Although a lower concentration of the antibacterial material is contained in the multifilament, it is considered that the test should be carried out at 1000 ppm, because the concentration of the antibacterial material in the multifilament will be excessively low when the test is carried out at a lower concentration. […]
# [3] = system: Staphylococcus aureus (ATCC 6538); assay: as above; format: cell-based; settings: contained in multifilament, treatment concentration 1000 ppm, 37.1° C., 24 hours, FIG. 8
# Experimental: as §1
# [4] = Degradation behavior of PGLA multifilament in PBS solution; format: physicochemical
# Source text: FIG. 9 is a photograph showing the results of observing the degradation behavior of 0.1 g of the PGLA multifilament in PBS solution (pH7.4; similar to the human body) for 0 day, 10 days and 2 months. […] Also, it can be seen that the grapefruit seed extract and CAPE or pinocembrin which is the active component of propolis have no effect on the degradation of the multifilament.
molecule,measurement,setting,value
"O=C(/C=C/c1ccc(O)c(O)c1)OCCc1ccccc1 [CAPE, caffeic acid phenethyl ester]",time at which drug release behavior was completed,[1],≤ 64 h
same,antibacterial activity,[2],showed antibacterial activity
same,antibacterial activity,[3],showed antibacterial activity
same,effect on the degradation of the multifilament,[4]; pH 7.4,no effect
O=C1CC(c2ccccc2)Oc2cc(O)cc(O)c21 (stereo not shown) [pinocembrin],time at which drug release behavior was completed,[1],≤ 60 h
same,effect on the degradation of the multifilament,"[4]; PBS solution pH7.4, 0 day, 10 days and 2 months, FIG. 9",no effect
poly(glycolide-co-L-lactide) [PGLA multifilament],degradation of the multifilament,[4]; pH 7.4,significantly rapid
